Reference: patent publication US20010010822A1, “LIPID COMPLEXES AND LIPOSOMES OF HIGHLY INSOLUBLE PLATINUM COMPLEXES” (priority 1999, published 2001)

Test system: PLATINUM RESISTANT P388 CELL LINE
Experiment: Anti-tumor activity of DACH-platinum compounds against platinum resistant P388 cell line
Assay type: in vivo
Details: initial tumor burden 1.0 × 10^6

## N.N.[Cl][Pt][Cl] [Cisplatin]
Dose 3.5 mg/kg
  % Increase in Length of Survival: +3%
  % T/C: 103.8%
  Log10 Change in Tumor Burden: +1.7
  Median Day of Death: 13.5
Dose 5.3 mg/kg
  % Increase in Length of Survival: +15%
  % T/C: 115.4%
  Log10 Change in Tumor Burden: +1.5
  Median Day of Death: 15.0
Dose 8.0 mg/kg
  % Increase in Length of Survival: +23%
  % T/C: 123.1%
  Log10 Change in Tumor Burden: +1.5
  Median Day of Death: 16.0
